The target in one series is T1, β-glucuronidase (Escherichia coli, UniProt P05804).
T1 construct: purchased Sigma Chemical Co
The series is described as follows: β-glucuronidase inhibition: residual activity (production of formula III compound from formula II compound, HPLC). Type of series: biochemical. Particulars: formula II substrate 100 nmol/ml, pH 6.8, 37° C., 20 min; for remaining activity at 0.0167 µM: 16.7 nM; for remaining activity at 0.0333 µM: 33.3 nM; for remaining activity at 0.1667 µM: 166.7 nM. The procedure: β-glucuronidase (manufactured by Sigma Chemical Co.) derived from Escherichia coli was added to a reaction solution comprising 50 μl of potassium phosphate buffer (pH: 6.8), a solution of a compound (100 nmol/ml) represented by the formula II and produced by Reference Example which will be described later and a specimen, and a reaction was allowed to proceed at 37° C. for 20 min. A glycine buffer (pH: 10.4) was added to terminate the reaction. 10 μl of the reaction mixture and 100 μl of an internal standard (camptothecin) solution were added to 1 ml of a 0.01N aqueous hydrochloric acid solution, and the mixture was applied to Bond Elute C18 (Analytichem), washed with water and 0.01N aqueous hydrochloric acid solution. Elution was effected with acetonitrile/water (1:2). 100 μl of the eluate obtained by elution with acetonitrile/water (1:2) was analyzed by high performance liquid chromatography (HPLC) under the following conditions, and the β-glucuronidase activity was calculated by using the amount of production of the compound represented by the formula III as an indication.
Apparatus: high performance liquid chromatograph HLC-803D manufactured by Toyo Soda
Analytical column: Tosoh ODS-80TM 250×4.6 mm (I.D.)
Thermostatic chamber of column: Tosoh CO-8011 40° C.
Guard column: Tosoh TSKguradgel ODS-120T
Detector: Shimazu Fluorescence HPLCMonitor RF-530
Detection wavelength: Ex380nm Em556nm
Autosampler: Tosoh AS-8000
Eluent: acetonitrile/water (1:2)

For a further series, the system named is bone marrow. Conditions: cited from earlier work.

T1 sequence (P05804 whole entry): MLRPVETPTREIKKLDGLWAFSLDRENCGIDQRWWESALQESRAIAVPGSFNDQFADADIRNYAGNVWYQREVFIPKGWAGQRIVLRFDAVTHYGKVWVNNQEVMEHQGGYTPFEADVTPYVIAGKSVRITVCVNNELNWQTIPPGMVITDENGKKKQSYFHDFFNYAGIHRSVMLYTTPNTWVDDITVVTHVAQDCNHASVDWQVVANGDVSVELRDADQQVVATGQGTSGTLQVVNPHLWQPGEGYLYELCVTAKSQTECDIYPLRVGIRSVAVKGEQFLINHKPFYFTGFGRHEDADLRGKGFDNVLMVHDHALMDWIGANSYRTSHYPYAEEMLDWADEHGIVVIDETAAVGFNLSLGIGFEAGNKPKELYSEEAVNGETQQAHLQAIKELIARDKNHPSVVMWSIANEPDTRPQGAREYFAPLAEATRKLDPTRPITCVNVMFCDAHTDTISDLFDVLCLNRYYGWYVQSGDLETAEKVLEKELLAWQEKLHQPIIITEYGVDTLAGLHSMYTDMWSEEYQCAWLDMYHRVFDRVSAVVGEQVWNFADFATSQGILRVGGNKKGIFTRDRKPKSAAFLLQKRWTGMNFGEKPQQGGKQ

As usually defined, the remaining activity is the signal under treatment as a percentage of the control signal. On β-glucuronidase, `O=C(O)[C@H]1O[C@@H](Oc2cc3oc(-c4ccccc4)cc(=O)c3c(O)c2O)[C@H](O)[C@@H](O)[C@@H]1O` [Baicalin, baicalin] showed a remaining activity at 0.0167 µM of 19%, a remaining activity at 0.0333 µM of 10.7% and a remaining activity at 0.1667 µM of 2.3%.
Turning to `CC[C@@]1(O)C(=O)OCc2c1cc1n(c2=O)Cc2cc3ccccc3nc2-1` [Camptothecin, camptothecin], in the series with bone marrow, the toxicity result is listed as “strong inhibition of bone marrow”.
As for `O=C(O)[C@H]1O[C@@H](Oc2cc(-c3cc(=O)c4c(O)cc(O)cc4o3)ccc2O)[C@H](O)[C@@H](O)[C@@H]1O` [Luteolin-3'-glucuronide, luteolin-3'-glucuronide], on β-glucuronidase, the remaining activity at 0.0167 µM stood at 28.5%, the remaining activity at 0.0333 µM worked out at 13.2% and the remaining activity at 0.1667 µM was found to be 2.1%.
At β-glucuronidase, `COc1c(O[C@@H]2O[C@H](C(=O)O)[C@@H](O)[C@H](O)[C@H]2O)cc2oc(-c3ccccc3)cc(=O)c2c1O` [Oroxylin A-7-O-glucuronide, oroxylin A-7-O-glucuronide] displayed a remaining activity at 0.0167 µM of 31.1%, a remaining activity at 0.0333 µM of 17% and a remaining activity at 0.1667 µM of 3%.

These data come from patent US5447719A, “β-glucuronidase inhibitor” (priority 1991, dated 1995).
